These results are taken from patent publication US12516038B2, “Inhibitors of antigen presentation by HLA-DR” (Janssen Pharmaceutica NV, priority 2020, dated 2026).

For one assay, the target named is HLA-DRB1*0401 (Homo sapiens (Human), UniProt P01903+P01911, A100K/A169T/DEL228-266/F76Y/I96L/K127E/L162R/M171V/N62H/P40V/Q125Y/R42H/S133A/S149N/S66Y/V115G/V209L/W38E). Briefly: HLA-DR4 HTRF assay. To be noted: inhibition of loading of Alexa Fluor 647-labeled Cit-CII peptide onto HLA-DR4 (CLIP cleaved). In kind it is binding. In a few lines: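 HLA-DRB1*04:01 construct (α/β fused to human Fc, CLIP pre-cleaved by HRV3C overnight at 4° C) at 3 nM was preincubated 45 min with compound and 1 nM anti-Fc-Tb donor, then 40 nM Alexa647-Cit-CII1236-1249 peptide added. After 90 min at 37° C, the 665/620 nm HTRF ratio gave % inhibition; IC50 by nonlinear regression.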
(In general: Time-resolved FRET reads energy transfer from a long-lived donor to a nearby acceptor.)

The subject of assay [1] is HLA-DR4 restricted mouse T cell hybridoma line (DR4.CII.36.8) with HLA-DRB1*04:01-expressing Boleth cells. Kind of assay: HLA-DR4-restricted peptide-specific T cell-based assay (hybridoma assay). To be noted: Mus musculus, T-cell, 6 h, inhibition of IL-2 production, CII259-273 peptide presented by Boleth cells. A digest of the protocol:
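IC50 values derive from 4-parameter logistic fits of IL-2 AlphaLISA signal over 8-point duplicate titrations. Compound and HLA-DRB1*04:01 Boleth APCs were preincubated 1 h, 37° C., before adding CII259-273-restricted DR4.CII.36.8 hybridoma cells with peptide for 6 h at 37° C., in DMEM/1% FCS.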

With `COc1ccc([C@H](Oc2c(F)cc3c(c2C)OCCC3=O)c2ccncc2)cc1` (single isomer, unassigned) [Example 103b, (*S)-6-fluoro-7-((4-methoxyphenyl)(pyridin-4-yl)methoxy)-8-methylchroman-4-one], the IC50 (commonly the concentration that inhibits the measured activity by half) stood at 2800 nM at HLA-DRB1*0401 and 15000 nM in assay [1].

For the compound `Cc1c(O[C@@H](c2ccncc2)c2ccc(S(C)(=O)=O)cc2)c(F)cc2c1OCCC2=O` (single isomer, unassigned) [Example 104a, (*R)-6-fluoro-8-methyl-7-((4-(methylsulfonyl)phenyl)(pyridin-4-yl)methoxy)chroman-4-one], the IC50 against HLA-DRB1*0401 was found to be 290 nM; in assay [1], 3900 nM.

As for `Cc1c(O[C@H](c2ccncc2)c2ccc(S(C)(=O)=O)cc2)c(F)cc2c1OCCC2=O` (single isomer, unassigned) [Example 104b, (*S)-6-fluoro-8-methyl-7-((4-(methylsulfonyl)phenyl)(pyridin-4-yl)methoxy)chroman-4-one], the IC50 against HLA-DRB1*0401 turned out to be 230 nM; in assay [1], 1100 nM.

As to `Cc1c(O[C@H](c2ccncc2)c2cccc(S(C)(=O)=O)c2)c(F)cc2c1OCCC2=O` (single isomer, unassigned) [Example 105a, (*R)-6-fluoro-8-methyl-7-((3-(methylsulfonyl)phenyl)(pyridin-4-yl)methoxy)chroman-4-one], the IC50 at HLA-DRB1*0401 is 200 nM; in assay [1], greater than 15000 nM.

In the case of `Cc1c(O[C@@H](c2ccncc2)c2cccc(S(C)(=O)=O)c2)c(F)cc2c1OCCC2=O` (single isomer, unassigned) [Example 105b, (*S)-6-fluoro-8-methyl-7-((3-(methylsulfonyl)phenyl)(pyridin-4-yl)methoxy)chroman-4-one], the figures for the half-inhibitory concentration (IC50) (against HLA-DRB1*0401; in assay [1]) were 190 nM and 6000 nM, respectively.

Regarding `Cc1cc([C@H](Oc2ccc3c(c2C(C)C)OCCC3=O)c2ccc(C(N)=O)cc2)cc(C)n1` (single isomer, unassigned) [Example 106a, (*R)-4-((2,6-dimethylpyridin-4-yl)((8-isopropyl-4-oxochroman-7-yl)oxy)methyl)benzamide], the IC50 came out at 470 nM against HLA-DRB1*0401 and 57 nM in assay [1].

Regarding `Cc1cc([C@@H](Oc2ccc3c(c2C(C)C)OCCC3=O)c2ccc(C(N)=O)cc2)cc(C)n1` (single isomer, unassigned) [Example 106b, (*S)-4-((2,6-dimethylpyridin-4-yl)((8-isopropyl-4-oxochroman-7-yl)oxy)methyl)benzamide], the IC50 stood at 740 nM against HLA-DRB1*0401 and 370 nM in assay [1].

In the case of `CC(C)c1c(O[C@H](c2ccc(C(N)=O)cc2)c2cccc(C#N)c2)ccc2c1OCCC2=O` (single isomer, unassigned) [Example 107a, (*R)-4-((3-cyanophenyl)((8-isopropyl-4-oxochroman-7-yl)oxy)methyl)benzamide], the IC50 against HLA-DRB1*0401 stood at 940 nM; in assay [1], 10000 nM.

For the compound `CC(C)c1c(O[C@@H](c2ccc(C(N)=O)cc2)c2cccc(C#N)c2)ccc2c1OCCC2=O` (single isomer, unassigned) [Example 107b, (*S)-4-((3-cyanophenyl)((8-isopropyl-4-oxochroman-7-yl)oxy)methyl)benzamide], the half-maximal inhibitory concentration (IC50) at HLA-DRB1*0401 worked out at 1100 nM; in assay [1], 2300 nM.

Consider `CC(C)c1c(O[C@H](c2ccc(C(N)=O)cc2)c2ccc(C(=O)O)cc2)ccc2c1OCCC2=O` (single isomer, unassigned) [Example 108a, (*R)-4-((4-carbamoylphenyl)((8-isopropyl-4-oxochroman-7-yl)oxy)methyl)benzoic acid], for which the IC50 was 860 nM on HLA-DRB1*0401 and greater than 15000 nM in assay [1].

Take `CC(C)c1c(O[C@@H](c2ccc(C(N)=O)cc2)c2ccc(C(=O)O)cc2)ccc2c1OCCC2=O` (single isomer, unassigned) [Example 108b, (*S)-4-((4-carbamoylphenyl)((8-isopropyl-4-oxochroman-7-yl)oxy)methyl)benzoic acid]: the IC50 on HLA-DRB1*0401 amounted to 820 nM; in assay [1], 2700 nM.
